Values belong to the molecule of their own block, whether it stands above or below them. Activity calls are given as the source filed them. The rule behind the calls is not given here.
Key:
Type in all cases: cell-based
[1] = system: Cystic fibrosis transmembrane conductance regulator (Homo sapiens), P13569 [F508del]; assay: (§1) Corrector activity at CFTR F508del mutant (unknown origin) expressed in human CFBE41o- cells co-expressing halide-sensitive yellow fluorescent protein assessed as increase in iodide influx at 1 to 10 uM preincubated with compound for 24 hrs followed by compound washout and measured after 30 mins of stimulation with forskolin/genistein by fluorescence microplate reader; conditions: dose 1-10 µM
[2] = system: Cystic fibrosis transmembrane conductance regulator (Homo sapiens), P13569 [F508del]; assay: as §1, with “hrs in presence of VX-809” for “hrs”; conditions: filed as activator, dose 1-10 µM
[3] = target: T1, Cystic fibrosis transmembrane conductance regulator (Homo sapiens, UniProt P13569, F508DEL); assay: as §1, with “influx” for “influx at 1 to 10 uM”
[4] = target: T1, Cystic fibrosis transmembrane conductance regulator; assay: as §1, with “influx” for “influx at 1 to 10 uM”, “hrs in presence of VX-809” for “hrs”
[5] = system: Cystic fibrosis transmembrane conductance regulator (Homo sapiens), P13569 [F508del]; assay: as §1, with “by measuring fold change” for “at 1 to 10 uM”, “hrs in presence of VX-809” for “hrs”, “reader relative to VX-809 alone” for “reader”; conditions: filed as activator
[6] = system: Cystic fibrosis transmembrane conductance regulator (Homo sapiens), P13569 [F508del]; assay: as §1, with “at” for “at 1 to”, “hrs in presence of corr-4a” for “hrs”; conditions: filed as activator
[7] = system: Cystic fibrosis transmembrane conductance regulator (Homo sapiens), P13569 [F508del]; assay: as §1, with “at” for “at 1 to”, “hrs in presence of VX-445” for “hrs”

T1 sequence (P13569 as listed by the source): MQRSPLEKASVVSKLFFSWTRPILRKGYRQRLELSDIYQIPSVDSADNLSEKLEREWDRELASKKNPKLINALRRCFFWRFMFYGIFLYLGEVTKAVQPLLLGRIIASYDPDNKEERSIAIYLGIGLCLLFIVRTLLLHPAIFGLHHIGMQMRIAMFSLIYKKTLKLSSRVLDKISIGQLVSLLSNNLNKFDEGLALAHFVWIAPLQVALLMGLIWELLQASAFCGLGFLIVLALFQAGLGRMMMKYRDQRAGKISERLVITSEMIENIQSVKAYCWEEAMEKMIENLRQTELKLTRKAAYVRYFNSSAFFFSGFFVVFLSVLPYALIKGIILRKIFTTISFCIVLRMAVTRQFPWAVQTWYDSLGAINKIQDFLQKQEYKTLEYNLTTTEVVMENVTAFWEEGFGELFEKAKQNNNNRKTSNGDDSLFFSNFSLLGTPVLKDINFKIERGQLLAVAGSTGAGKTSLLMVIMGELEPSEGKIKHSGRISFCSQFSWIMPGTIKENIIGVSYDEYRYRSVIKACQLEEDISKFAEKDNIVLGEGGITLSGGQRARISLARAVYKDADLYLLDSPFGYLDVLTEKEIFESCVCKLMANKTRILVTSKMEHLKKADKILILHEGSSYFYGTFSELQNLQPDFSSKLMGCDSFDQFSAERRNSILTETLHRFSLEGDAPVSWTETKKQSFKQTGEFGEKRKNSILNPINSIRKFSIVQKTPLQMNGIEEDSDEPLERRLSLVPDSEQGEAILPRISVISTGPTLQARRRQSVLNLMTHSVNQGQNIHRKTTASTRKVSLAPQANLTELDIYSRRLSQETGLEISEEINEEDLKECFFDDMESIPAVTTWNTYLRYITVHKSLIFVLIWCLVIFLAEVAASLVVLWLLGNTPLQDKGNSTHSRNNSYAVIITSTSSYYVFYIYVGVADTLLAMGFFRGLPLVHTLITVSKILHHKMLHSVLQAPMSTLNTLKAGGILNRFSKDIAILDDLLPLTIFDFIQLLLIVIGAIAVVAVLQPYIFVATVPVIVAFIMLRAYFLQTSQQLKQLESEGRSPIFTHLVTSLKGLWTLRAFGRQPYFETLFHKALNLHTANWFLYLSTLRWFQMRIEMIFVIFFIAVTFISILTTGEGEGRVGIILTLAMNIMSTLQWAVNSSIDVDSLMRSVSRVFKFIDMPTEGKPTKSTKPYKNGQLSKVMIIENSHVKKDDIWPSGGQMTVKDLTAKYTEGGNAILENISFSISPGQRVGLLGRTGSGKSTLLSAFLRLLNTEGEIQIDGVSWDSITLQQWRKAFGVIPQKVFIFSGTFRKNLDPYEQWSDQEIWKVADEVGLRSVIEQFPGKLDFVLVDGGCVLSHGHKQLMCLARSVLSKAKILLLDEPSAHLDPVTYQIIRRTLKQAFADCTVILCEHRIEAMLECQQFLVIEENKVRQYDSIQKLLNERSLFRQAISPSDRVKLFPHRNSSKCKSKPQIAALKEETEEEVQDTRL
Cystic fibrosis transmembrane conductance regulator (Homo sapiens), P13569 [F508del], sequence (P13569 as listed by the source): as above

Activity [1]: inactive
Structure (SMILES): CCOC(=O)c1c(Br)c2c(n1Cc1ccc(C)cc1)-c1nc(NS(=O)(=O)c3ccccc3)ncc1CC2

Activity [2]: Active | Activity ([1]; filed as activator): Active
Structure (SMILES): CCOC(=O)c1c(Br)c2c(n1Cc1ccc(F)c(Br)c1)-c1nc(NS(=O)(=O)c3ccccc3)ncc1CC2

Activity [2]: Active
Structure (SMILES): Cc1cccc(Cn2c(C(=O)OC(C)C)c(Br)c3c2-c2nc(NS(=O)(=O)c4ccccc4)ncc2CC3)c1

Activity [2]: Active | Activity [1]: inactive
Structure (SMILES): CCOC(=O)c1c(Br)c2c(n1CC1CC1)-c1nc(NS(=O)(=O)c3ccccc3)ncc1CC2

Activity [1]: inactive
Structure (SMILES): CCOC(=O)c1cc2c(n1Cc1ccc(Br)cc1)-c1nc(NS(=O)(=O)c3ccccc3)ncc1CC2

EC50 [3]: 750 nM | EC50 [4]: 450 nM | fold change (FC) [5]: 2.4 | Activity [6]: Active | Activity [7]: inactive
Structure (SMILES): CCOC(=O)c1c(Br)c2c(n1Cc1cccc(C)c1)-c1[nH]c(=O)c(S(=O)(=O)c3ccccc3)cc1CC2

Activity [2]: Active | Activity ([1]; filed as activator): Active | EC50 [3]: 3080 nM | EC50 [4]: 2120 nM | fold change (FC) [5]: 2.3 | Activity [6]: Active | Activity [7]: inactive
Structure (SMILES): CCOC(=O)c1c(Br)c2c(n1Cc1cccc(Br)c1)-c1nc(NS(=O)(=O)c3ccccc3)ncc1CC2

Activity [2]: Active | Activity ([1]; filed as activator): Active
Structure (SMILES): CCOC(=O)c1cc2c(n1Cc1ccc(F)c(Br)c1)-c1nc(NS(=O)(=O)c3ccccc3)ncc1CC2

Activity [2]: Active | EC50 [3]: 3140 nM | EC50 [4]: 1880 nM | fold change (FC) [5]: 2.1 | Activity [6]: Active | Activity [7]: inactive
Structure (SMILES): CCOC(=O)c1c(Cl)c2c(n1Cc1cccc(C)c1)-c1nc(NS(=O)(=O)c3ccccc3)ncc1CC2

Activity [1]: inactive
Structure (SMILES): CCOC(=O)c1cc2c(n1Cc1ccc(C)cc1)-c1nc(NS(=O)(=O)c3ccccc3)ncc1CC2

Activity [2]: Active
Structure (SMILES): CCOC(=O)c1cc2c(n1Cc1cccc(C)c1)-c1nc(NS(=O)(=O)c3ccccc3)ncc1CC2

Activity [1]: inactive
Structure (SMILES): CCOC(=O)c1cc2c(n1CC1CC1)-c1nc(NS(=O)(=O)c3ccccc3)ncc1CC2

Activity [2]: Active
Structure (SMILES): CCOC(=O)c1c(Br)c2c(n1Cc1cccc(C)c1)-c1nc(NS(=O)(=O)c3ccccc3)ncc1CC2

Activity [2]: Active | Activity [1]: inactive
Structure (SMILES): CCOC(=O)c1c(Br)c2c(n1Cc1ccc(Br)cc1)-c1nc(NS(=O)(=O)c3ccccc3)ncc1CC2

Activity [2]: Active | Activity ([1]; filed as activator): Active
Structure (SMILES): CCOC(=O)c1c(Br)c2c(n1Cc1ccc(C)c(C)c1)-c1nc(NS(=O)(=O)c3ccccc3)ncc1CC2

Activity [1]: inactive
Structure (SMILES): CCOC(=O)c1c(Br)c2c(n1Cc1ccc(F)cc1)-c1nc(NS(=O)(=O)c3ccccc3)ncc1CC2

Activity [1]: inactive
Structure (SMILES): CCOC(=O)c1cc2c(n1Cc1cccc(Br)c1)-c1nc(NS(=O)(=O)c3ccccc3)ncc1CC2
